This is an account of results in patent US20210162013A1, “COMPOSITIONS AND METHODS FOR IMPROVING THE BIOAVAILABILITY OF GLP1 AND ANALOGUES THEREOF” (Brown University, priority 2018, published 2021).

Read-outs that look alike come from different tables or passages of the source. No end group written: not given here.

For data set [1], the system named is BKS.Cg WT mice. The data set can be described thus: Bioavailability: IPGTT, oral PIN/PLA GLP-1 vs intraperitoneal soluble peptide, serum glucose AUC. It is filed as in vivo. On the procedure: All mice were then injected intraperitoneally with glucose (3 mg/ml in 0.2 ml saline). Blood was collected at time 0 (pre-glucose) and at indicated times post-glucose. Serum glucose levels were determined as described above.

For data set [2] the following is noted: oral, relative to intravenous administration of GLP-1; cited from earlier work.
The target of data set [3] is T1, GLP-1 receptor (Homo sapiens, UniProt P43220). Particulars: cited from earlier work.
The target of data set [4] is T1, GLP-1 receptor. Particulars: cited from earlier work. The source holds these as a separate data set.
The subject of data set [5] is type 2 diabetic patients. Particulars: cited from earlier work.

T1 sequence (P43220 24-463, species assumed): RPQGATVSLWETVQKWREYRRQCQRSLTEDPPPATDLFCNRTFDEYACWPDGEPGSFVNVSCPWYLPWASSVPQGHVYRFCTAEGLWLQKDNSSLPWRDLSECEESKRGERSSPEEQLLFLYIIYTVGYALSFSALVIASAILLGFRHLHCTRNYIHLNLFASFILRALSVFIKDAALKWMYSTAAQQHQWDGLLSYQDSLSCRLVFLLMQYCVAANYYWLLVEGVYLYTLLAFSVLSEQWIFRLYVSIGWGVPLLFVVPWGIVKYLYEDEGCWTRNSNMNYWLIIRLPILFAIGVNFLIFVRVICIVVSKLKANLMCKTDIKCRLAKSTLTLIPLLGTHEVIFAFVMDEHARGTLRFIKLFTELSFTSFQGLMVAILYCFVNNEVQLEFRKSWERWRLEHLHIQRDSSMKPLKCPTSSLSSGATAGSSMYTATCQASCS

For the substance GLP-1 (7-36 amide) [Free], the “AUC 30 ug (serum glucose area under the curve)” value in data set [1] (30 ug GLP-1/mouse, Free = intraperitoneal soluble peptide, Encap = oral PIN/PLA particles) amounted to 7515. Besides, the “AUC 90 ug (serum glucose area under the curve)” value in data set [1] (90 ug GLP-1/mouse, Free = intraperitoneal soluble peptide, Encap = oral PIN/PLA particles) came out at 7425. For the same substance, the “AUC 250 ug (serum glucose area under the curve)” value in data set [1] (250 ug GLP-1/mouse, Free = intraperitoneal soluble peptide, Encap = oral PIN/PLA particles) worked out at 6262. Further, in data set [1] (250 μg GLP-1, oral particles vs intraperitoneal soluble peptide), the “effect on blood glucose in IPGTT (in words)” value is recorded as “superior”. Moreover, the mean absolute bioavailability in data set [2] is 4%.
On to “GLP-1(9-36)-NH2 (EGTFTSDVSSYLEGQAAKEFIAWLVKGR-NH2; UniProt P01275 100-127, looked up, fragment)”, for which, in data set [3], the “lower binding affinity compared to the intact peptide” value is 100 fold. In addition, the “decrease in agonistic activity” value in data set [4] is greater than 10000 fold.
Take “rGLP-1: rGLP-1 given by continuous infusion in a cited study”: the “decrease in fasting serum glucose” value in data set [5] (1.25 pmol/kg/min) is 22.7 mg/dL; in data set [5] (2.5 pmol/kg/min), 37.0 mg/dL; in data set [5] (5.0 pmol/kg/min), 53.9 mg/dL; in data set [5] (8.5 pmol/kg/min), 76.2 mg/dL.
